The assay has as its target Human cGAS amino acids 155-522 (Homo sapiens (Human), UniProt Q8N884). Description: cGAS biochemical activity assay (ATP remaining, Kinase-Glo Max luminescence). The following applies: human cGAS 155-522, ATP remaining (Kinase-Glo Max); read-out: cGAS IC50.
Chain of Human cGAS amino acids 155-522 (Q8N884 157-522): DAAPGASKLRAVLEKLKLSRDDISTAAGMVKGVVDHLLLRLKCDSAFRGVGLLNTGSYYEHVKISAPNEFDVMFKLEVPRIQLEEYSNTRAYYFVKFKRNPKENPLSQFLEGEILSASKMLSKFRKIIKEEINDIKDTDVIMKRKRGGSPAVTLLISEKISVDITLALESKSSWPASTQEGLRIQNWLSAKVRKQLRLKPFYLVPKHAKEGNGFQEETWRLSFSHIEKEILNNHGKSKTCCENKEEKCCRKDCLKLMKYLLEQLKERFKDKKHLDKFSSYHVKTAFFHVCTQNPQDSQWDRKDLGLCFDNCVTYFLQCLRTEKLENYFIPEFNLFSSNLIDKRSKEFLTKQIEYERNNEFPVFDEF
Broadly, the IC50 is the concentration needed to halve the response being measured. Turning to `CC(=O)NCCc1c(C)[nH]c2c(-c3ccccc3)c(C(F)(F)F)nn2c1=O` [Compound B1013, N-(2-(5-methyl-7-oxo-3-phenyl-2-(trifluoromethyl)-4,7-dihydropyrazolo[1,5-a]pyrimidin-6-yl)ethyl)acetamide], the IC50 is 20 to 250 µM.
To `COc1cccc2oc(-c3c(C)[nH]c4c(-c5ccccc5)c(=O)[nH]n4c3=O)nc12` [Compound C1049, 6-(4-methoxybenzo[d]oxazol-2-yl)-5-methyl-3-phenylpyrazolo[1,5-a]pyrimidine-2,7(1H,4H)-dione] belongs 20 to 250 µM; to `Cc1[nH]c2c(-c3ccccc3)c(C(F)(F)F)nn2c(=O)c1C(=O)Nc1cccc(NS(C)(=O)=O)c1` [Compound A1045, 5-methyl-N-(3-(methylsulfonamido)phenyl)-7-oxo-3-phenyl-2-(trifluoromethyl)-4,7-dihydropyrazolo[1,5-a]pyrimidine-6-carboxamide], under 20 µM; to `Cc1[nH]c2c(-c3ccccc3)c(C(F)(F)F)nn2c(=O)c1C(=O)N[C@H]1CCCC[C@H]1O` [Compound A1092, N-((1S,2R)-2-hydroxycyclohexyl)-5-methyl-7-oxo-3-phenyl-2-(trifluoromethyl)-4,7-dihydropyrazolo[1,5-a]pyrimidine-6-carboxamide], 20 to 250 µM.
Then `Cc1[nH]c2c(-c3ccccc3)c(C(F)(F)F)nn2c(=O)c1C(=O)Nc1ccnnc1` [Compound A1018, 5-methyl-7-oxo-3-phenyl-N-(pyridazin-4-yl)-2-(trifluoromethyl)-4,7-dihydropyrazolo[1,5-a]pyrimidine-6-carboxamide], with 20 to 250 µM; and `COc1ncccc1NC(=O)c1c(C)[nH]c2c(-c3ccccc3)c(C(F)(F)F)nn2c1=O` [Compound A1093, N-(2-methoxypyridin-3-yl)-5-methyl-7-oxo-3-phenyl-2-(trifluoromethyl)-4,7-dihydropyrazolo[1,5-a]pyrimidine-6-carboxamide], with 20 to 250 µM; and `Cc1[nH]c2c(C3CC3)c(C(F)(F)F)nn2c(=O)c1Cc1ccccc1` [Compound C1264, 6-benzyl-3-cyclopropyl-5-methyl-2-(trifluoromethyl)pyrazolo[1,5-a]pyrimidin-7(4H)-one], with over 250 µM.
On to `COc1cccc2oc(-c3c(C(=O)NCCN(C)C)[nH]c4c(-c5ccccc5)c(C(F)(F)F)nn4c3=O)nc12` [Compound C1212, N-(2-(dimethylamino)ethyl)-6-(4-methoxybenzo[d]oxazol-2-yl)-7-oxo-3-phenyl-2-(trifluoromethyl)-4,7-dihydropyrazolo[1,5-a]pyrimidine-5-carboxamide], for which the IC50 was in the range of 20 to 250 µM.
`Cc1[nH]c2c(-c3ccccc3)c(C(F)(F)F)nn2c(=O)c1C(N)=O` [Compound A1140, 5-methyl-7-oxo-3-phenyl-2-(trifluoromethyl)-4,7-dihydropyrazolo[1,5-a]pyrimidine-6-carboxamide]: the IC50 fell in the range of 20 to 250 µM.
To `COc1ccncc1NC(=O)c1c(C)[nH]c2c(-c3ccccc3)c(C(F)(F)F)nn2c1=O` [Compound A1103, N-(4-methoxypyridin-3-yl)-5-methyl-7-oxo-3-phenyl-2-(trifluoromethyl)-4,7-dihydropyrazolo[1,5-a]pyrimidine-6-carboxamide] belongs 20 to 250 µM; to `COc1cccc2oc(-c3c(C)[nH]c4c(-c5ccc(C)cc5)c(C(F)(F)F)nn4c3=O)nc12` [Compound C1171], 20 to 250 µM.
Then `Cc1[nH]c2c(-c3ccccc3)c(C(F)(F)F)nn2c(=O)c1C(=O)Nc1ccc(C(F)(F)F)cc1` [Compound A1007, 5-methyl-7-oxo-3-phenyl-2-(trifluoromethyl)-N-(4-(trifluoromethyl)phenyl)-4,7-dihydropyrazolo[1,5-a]pyrimidine-6-carboxamide], with 20 to 250 µM.
With `Cc1[nH]c2c(-c3ccccc3)c(C(F)(F)F)nn2c(=O)c1C(=O)N[C@H]1CCNC1` [Compound A1035, (S)-5-methyl-7-oxo-3-phenyl-N-(pyrrolidin-3-yl)-2-(trifluoromethyl)-4,7-dihydropyrazolo[1,5-a]pyrimidine-6-carboxamide], the IC50 was over 250 µM.
As for `Cc1[nH]c2c(-c3ccccc3)c(C(F)(F)F)nn2c(=O)c1C(=O)Nc1ccccc1N1CCCC1` [Compound A1054, 5-methyl-7-oxo-3-phenyl-N-(2-(pyrrolidin-1-yl)phenyl)-2-(trifluoromethyl)-4,7-dihydropyrazolo[1,5-a]pyrimidine-6-carboxamide], the IC50 lay within 20 to 250 µM.
Then `Cc1[nH]c2c(-c3ccccc3)c(C(F)(F)F)nn2c(=O)c1C1OC(=O)c2ccccc21` (stereo not shown) [Compound C1168, 5-methyl-6-(3-oxo-1,3-dihydroisobenzofuran-1-yl)-3-phenyl-2-(trifluoromethyl)pyrazolo[1,5-a]pyrimidin-7(4H)-one], with 20 to 250 µM; and `Cc1ccc(NC(=O)c2c(C)[nH]c3c(-c4ccccc4)c(C(F)(F)F)nn3c2=O)cc1` [Compound A1012, 5-methyl-7-oxo-3-phenyl-N-(p-tolyl)-2-(trifluoromethyl)-4,7-dihydropyrazolo[1,5-a]pyrimidine-6-carboxamide], with 20 to 250 µM.
Then `CNC(=O)COCc1[nH]c2c(-c3ccccc3)c(C(F)(F)F)nn2c(=O)c1-c1nc2c(OC)cccc2o1` [Compound C1199, 2-((6-(4-methoxybenzo[d]oxazol-2-yl)-7-oxo-3-phenyl-2-(trifluoromethyl)-4,7-dihydropyrazolo[1,5-a]pyrimidin-5-yl)methoxy)-N-methylacetamide], with 20 to 250 µM; and `COCC1CCCN1c1nnc(-c2c(C)[nH]c3c(-c4ccccc4)c(C(F)(F)F)nn3c2=O)o1` (stereo not shown) [Compound D1059, 6-(5-(2-(methoxymethyl)pyrrolidin-1-yl)-1,3,4-oxadiazol-2-yl)-5-methyl-3-phenyl-2-(trifluoromethyl)pyrazolo[1,5-a]pyrimidin-7(4H)-one], with 20 to 250 µM; and `COCCNC(=O)Cc1c(C)[nH]c2c(-c3ccccc3)c(C(F)(F)F)nn2c1=O` [Compound B1003, N-(2-methoxyethyl)-2-(5-methyl-7-oxo-3-phenyl-2-(trifluoromethyl)-4,7-dihydropyrazolo[1,5-a]pyrimidin-6-yl)acetamide], with over 250 µM.
To `Cc1[nH]c2c(-c3ccccc3)c(C(F)(F)F)nn2c(=O)c1-c1nnc(C2CCCCC2)s1` [Compound D1006, 6-(5-cyclohexyl-1,3,4-thiadiazol-2-yl)-5-methyl-3-phenyl-2-(trifluoromethyl)pyrazolo[1,5-a]pyrimidin-7(4H)-one] belongs under 20 µM; to `Cc1[nH]c2c(-c3ccccc3)c(C(F)(F)F)nn2c(=O)c1CC(=O)Nc1cccnc1` [Compound B1008, 2-(5-methyl-7-oxo-3-phenyl-2-(trifluoromethyl)-4,7-dihydropyrazolo[1,5-a]pyrimidin-6-yl)-N-(pyridin-3-yl)acetamide], 20 to 250 µM; to `Cc1[nH]c2c(-c3ccccc3)c(C(F)(F)F)nn2c(=O)c1C(=O)Nc1cnccc1S(C)(=O)=O` [Compound A1109, 5-methyl-N-(4-(methylsulfonyl)pyridin-3-yl)-7-oxo-3-phenyl-2-(trifluoromethyl)-4,7-dihydropyrazolo[1,5-a]pyrimidine-6-carboxamide], 20 to 250 µM.
With `COc1cccc(NC(=O)c2c(C)[nH]c3c(-c4ccccc4)c(S(C)(=O)=O)nn3c2=O)c1` [Compound A1126, N-(3-methoxyphenyl)-5-methyl-2-(methylsulfonyl)-7-oxo-3-phenyl-4,7-dihydropyrazolo[1,5-a]pyrimidine-6-carboxamide], the IC50 was over 250 µM.
As to `Cc1[nH]c2c(-c3ccccc3)c(C(F)(F)F)nn2c(=O)c1C(=O)NC1CCCCC1` [Compound A1010, N-cyclohexyl-5-methyl-7-oxo-3-phenyl-2-(trifluoromethyl)-4,7-dihydropyrazolo[1,5-a]pyrimidine-6-carboxamide], the IC50 is 20 to 250 µM.
Then `Cc1[nH]c2c(-c3ccccc3)c(C(F)(F)F)nn2c(=O)c1-c1nnc(-c2ccc(N)cc2)o1` [Compound D1081, 6-(5-(4-aminophenyl)-1,3,4-oxadiazol-2-yl)-5-methyl-3-phenyl-2-(trifluoromethyl)pyrazolo[1,5-a]pyrimidin-7(4H)-one], with over 250 µM; and `COc1cccn2c(CO)c(-c3c(C)[nH]c4c(-c5ccccc5)c(C(F)(F)F)nn4c3=O)nc12` [Compound C1215, 6-(3-(hydroxymethyl)-8-methoxyimidazo[1,2-a]pyridin-2-yl)-5-methyl-3-phenyl-2-(trifluoromethyl)pyrazolo[1,5-a]pyrimidin-7(4H)-one], with 20 to 250 µM.
For the compound `Cc1[nH]c2c(-c3ccccc3)c(C(F)(F)F)nn2c(=O)c1-c1nnc(N(C)C2CCCCC2)o1` [Compound D1043, 6-(5-(cyclohexyl(methyl)amino)-1,3,4-oxadiazol-2-yl)-5-methyl-3-phenyl-2-(trifluoromethyl)pyrazolo[1,5-a]pyrimidin-7(4H)-one], the IC50 is over 250 µM.
For the compound `Cc1[nH]c2c(-c3ccccc3)c(C(F)(F)F)nn2c(=O)c1-c1nnc(-c2ccc([N+](=O)[O-])cc2)o1` [Compound D1061, 5-methyl-6-(5-(4-nitrophenyl)-1,3,4-oxadiazol-2-yl)-3-phenyl-2-(trifluoromethyl)pyrazolo[1,5-a]pyrimidin-7(4H)-one], the IC50 fell in the range of 20 to 250 µM.
To `Cc1[nH]c2c(-c3ccccc3)c(C(F)(F)F)nn2c(=O)c1-c1cccc(Cl)c1` [Compound C1004, 6-(3-chlorophenyl)-5-methyl-3-phenyl-2-(trifluoromethyl)pyrazolo[1,5-a]pyrimidin-7(4H)-one] belongs 20 to 250 µM; to `Cc1[nH]c2c(-c3ccccc3)c(C(F)(F)F)nn2c(=O)c1C(=O)Nc1nc[nH]n1` [Compound A1040, 5-methyl-7-oxo-3-phenyl-N-(1H-1,2,4-triazol-3-yl)-2-(trifluoromethyl)-4,7-dihydropyrazolo[1,5-a]pyrimidine-6-carboxamide], 20 to 250 µM; to `Cc1[nH]c2c(-c3ccccc3)c(C(F)(F)F)nn2c(=O)c1C(=O)Nc1ccncc1` [Compound A1047, 5-methyl-7-oxo-3-phenyl-N-(pyridin-4-yl)-2-(trifluoromethyl)-4,7-dihydropyrazolo[1,5-a]pyrimidine-6-carboxamide], 20 to 250 µM.

Source of the values: US10738056B2 (Aduro BioTech, Inc., priority 2017, dated 2020).
